ChEMBL document CHEMBL1201862, “PubChem BioAssay data set” (2004)
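In this assay, cells in 96-well plates receive the compound at five concentrations for 48 hours. Endpoints are linearly interpolated between the surrounding concentrations. GI50 is the concentration that inhibits growth by half.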 Activity calls are given as the source filed them. Rule as the data show it: active = GI50 up to about 1.1 µM and inactive = higher.

What was measured:
Assay in all cases: NCI-60 cell line screen, 48 h
[1] = tested on: OVCAR-4
[2] = tested on: NCI-H460
[3] = tested on: SK-MEL-28
[4] = tested on: NCI-H226
[5] = tested on: SK-MEL-2
[6] = tested on: HOP-92
[7] = tested on: SNB-19
[8] = tested on: M14
[9] = tested on: HCT-15
[10] = tested on: SF-268
[11] = tested on: RPMI-8226
[12] = tested on: RXF 631
[13] = tested on: UO-31
[14] = tested on: OVCAR-3
[15] = tested on: DMS-114
[16] = tested on: NCI-H23
[17] = tested on: KM12
[18] = tested on: 786-0
[19] = tested on: LOX IMVI
[20] = tested on: SW-620
[21] = tested on: SK-OV-3
[22] = tested on: XF498
[23] = tested on: Malme-3M
[24] = tested on: UACC-257
[25] = tested on: A549
[26] = tested on: HL-60
[27] = tested on: MOLT-4
[28] = tested on: A498
[29] = tested on: SN12C
[30] = tested on: SF-295
[31] = tested on: K562
[32] = tested on: HCT-116
[33] = tested on: M19-MEL
[34] = tested on: HOP-62
[35] = tested on: DLD-1
[36] = tested on: CCRF-CEM
[37] = tested on: SF-539
[38] = tested on: U-251
[39] = tested on: OVCAR-8
[40] = tested on: HT-29
[41] = tested on: LXFL 529
[42] = tested on: RXF 393
[43] = tested on: HOP-18
[44] = tested on: KM-20L2
[45] = tested on: EKVX
[46] = tested on: HCC 2998
[47] = tested on: OVCAR-5
[48] = tested on: ACHN
[49] = tested on: TK-10
[50] = tested on: NCI-H522
[51] = tested on: SNB-75
[52] = tested on: SNB-78
[53] = tested on: COLO 205
[54] = tested on: IGROV-1
[55] = tested on: MDA-N
[56] = tested on: UACC-62
[57] = tested on: T47D
[58] = tested on: PC-3
[59] = tested on: NCI/ADR-RES
[60] = tested on: DU-145
[61] = tested on: DMS-273
[62] = tested on: Hs-578T
[63] = tested on: MDA-MB-435
[64] = tested on: SR
[65] = tested on: MCF7
[66] = tested on: BT-549
[67] = tested on: SK-MEL-5
[68] = tested on: MDA-MB-231
[69] = tested on: CAKI-1

With `CCCCCCCCCCCCCCCCc1c(O)nc(NC#N)nc1C(=O)OC` the GI50 [1] was > 25 µM (inactive), the GI50 [2] was > 25 µM (inactive) and the GI50 [3] was > 25 µM (inactive). The GI50 [4] was > 25 µM (inactive), the GI50 [5] was > 25 µM (inactive) and the GI50 [6] was > 25 µM (inactive). For the same molecule, the GI50 [7] was > 25 µM (inactive), the GI50 [8] was > 25 µM (inactive) and the GI50 [9] was > 25 µM. The GI50 [10] was > 25 µM (inactive), the GI50 [11] was > 25 µM (inactive) and the GI50 [12] was > 25 µM (inactive). The GI50 [13] was > 25 µM (inactive), the GI50 [14] was > 25 µM (inactive) and the GI50 [15] was > 25 µM (inactive). The GI50 [16] was > 25 µM (inactive), the GI50 [17] was > 25 µM (inactive) and the GI50 [18] was > 25 µM (inactive). For the same molecule, the GI50 [19] was > 25 µM (inactive), the GI50 [20] was > 25 µM (inactive) and the GI50 [21] was > 25 µM (inactive). The GI50 [22] was > 25 µM (inactive), the GI50 [23] was > 25 µM (inactive) and the GI50 [24] was > 25 µM (inactive). For the same molecule, the GI50 [25] was > 25 µM (inactive), the GI50 [26] was > 25 µM (inactive) and the GI50 [27] was > 25 µM (inactive). The GI50 [28] was > 25 µM (inactive), the GI50 [29] was > 25 µM (inactive) and the GI50 [30] was > 25 µM (inactive). The GI50 [31] was > 25 µM (inactive), the GI50 [32] was > 25 µM (inactive) and the GI50 [33] was > 25 µM (inactive). The GI50 [34] was > 25 µM (inactive), the GI50 [35] was > 25 µM (inactive) and the GI50 [36] was > 25 µM (inactive). The GI50 [37] was > 25 µM (inactive), the GI50 [38] was > 25 µM (inactive) and the GI50 [39] was > 25 µM (inactive). The GI50 [40] was > 25 µM (inactive), the GI50 [41] was > 25 µM (inactive) and the GI50 [42] was > 25 µM (inactive). The GI50 [43] was > 25 µM (inactive), the GI50 [44] was > 25 µM (inactive) and the GI50 [45] was > 25 µM (inactive). The GI50 [46] was > 25 µM (inactive), the GI50 [47] was > 25 µM (inactive) and the GI50 [48] was > 25 µM (inactive). The GI50 [49] was > 25 µM (inactive), the GI50 [50] was > 25 µM (inactive) and the GI50 [51] was > 25 µM (inactive). The GI50 [52] was > 25 µM (inactive) and the GI50 [53] was > 25 µM (inactive).
With `O=C1C(Cl)=C(N2CCN(C3=C(Cl)C(=O)c4ccccc4C3=O)CC2)C(=O)c2ccccc21` the GI50 [1] was 1.58 µM (inactive), the GI50 [2] was 3.54 µM (inactive) and the GI50 [3] was 1.94 µM (inactive). The GI50 [4] was 4.25 µM (inactive), the GI50 [54] was 1.91 µM (inactive) and the GI50 [5] was 1.74 µM (inactive). The GI50 [6] was 1.04 µM (active), the GI50 [7] was 14.9 µM (inactive) and the GI50 [55] was 1.86 µM (inactive). For the same molecule, the GI50 [8] was 1.53 µM (inactive), the GI50 [56] was 1.79 µM (inactive) and the GI50 [9] was 1.61 µM. The GI50 [10] was 2.62 µM (inactive), the GI50 [11] was 0.436 µM (active) and the GI50 [12] was 1.85 µM (inactive). For the same molecule, the GI50 [13] was 1.45 µM (inactive), the GI50 [14] was 1.6 µM (inactive) and the GI50 [57] was 0.729 µM (active). The GI50 [15] was 1.34 µM (inactive), the GI50 [16] was 1.58 µM (inactive) and the GI50 [17] was 4.81 µM (inactive). For the same molecule, the GI50 [58] was 7.31 µM (inactive), the GI50 [18] was 1.82 µM (inactive) and the GI50 [59] was 1.92 µM (inactive). For the same molecule, the GI50 [19] was 1.71 µM (inactive), the GI50 [20] was 1.17 µM (inactive) and the GI50 [21] was 14.1 µM (inactive). The GI50 [22] was 1.36 µM (inactive), the GI50 [23] was 1.91 µM (inactive) and the GI50 [24] was 1.46 µM (inactive). The GI50 [25] was 12.1 µM (inactive), the GI50 [26] was 0.0841 µM (active) and the GI50 [27] was 0.232 µM (active). The GI50 [28] was 3.49 µM (inactive), the GI50 [60] was 4.91 µM (inactive) and the GI50 [29] was 1.69 µM (inactive). For the same molecule, the GI50 [30] was 7.62 µM (inactive), the GI50 [31] was 0.121 µM (active) and the GI50 [61] was 2.14 µM (inactive). For the same molecule, the GI50 [32] was 1.44 µM (inactive), the GI50 [33] was 1.53 µM (inactive) and the GI50 [34] was 12.4 µM (inactive). For the same molecule, the GI50 [35] was 0.428 µM (active), the GI50 [62] was 2.22 µM (inactive) and the GI50 [36] was 0.162 µM (active). The GI50 [63] was 1.86 µM (inactive), the GI50 [37] was 1.73 µM (inactive) and the GI50 [38] was 3.13 µM (inactive). The GI50 [39] was 1.69 µM (inactive), the GI50 [40] was 2.23 µM (inactive) and the GI50 [64] was 0.179 µM (active). For the same molecule, the GI50 [41] was 0.297 µM (active), the GI50 [65] was 1.72 µM (inactive) and the GI50 [42] was 1.63 µM (inactive). The GI50 [66] was 1.73 µM (inactive), the GI50 [44] was 3.78 µM (inactive) and the GI50 [45] was 1.79 µM (inactive). For the same molecule, the GI50 [46] was 2.78 µM (inactive), the GI50 [47] was 6.64 µM (inactive) and the GI50 [67] was 1.79 µM (inactive). The GI50 [48] was 1.64 µM (inactive), the GI50 [49] was 1.96 µM (inactive) and the GI50 [50] was 0.652 µM (active). The GI50 [51] was 2.86 µM (inactive), the GI50 [68] was 1.64 µM (inactive) and the GI50 [69] was 1.79 µM (inactive). For the same molecule, the GI50 [52] was 0.61 µM (active) and the GI50 [53] was 1.69 µM (inactive).
With `O=C(Cc1ccccc1)N/N=C(\C1=Nc2ccc([N+](=O)[O-])cc2NC1O)C(O)c1ccc([N+](=O)[O-])cc1` (stereo not given) the GI50 [1] was > 10 µM (inactive), the GI50 [2] was > 100 µM (inactive) and the GI50 [4] was > 100 µM (inactive). The GI50 [54] was > 100 µM (inactive), the GI50 [5] was > 100 µM (inactive) and the GI50 [6] was > 100 µM (inactive). For the same molecule, the GI50 [7] was > 100 µM (inactive), the GI50 [8] was 30.8 µM (inactive) and the GI50 [56] was 54 µM (inactive). For the same molecule, the GI50 [9] was > 100 µM, the GI50 [10] was > 100 µM (inactive) and the GI50 [11] was 44.4 µM (inactive). The GI50 [12] was > 100 µM (inactive), the GI50 [13] was 52.8 µM (inactive) and the GI50 [14] was > 100 µM (inactive). The GI50 [16] was > 100 µM (inactive), the GI50 [18] was > 100 µM (inactive) and the GI50 [19] was 25.8 µM (inactive). For the same molecule, the GI50 [20] was 80 µM (inactive), the GI50 [21] was > 100 µM (inactive) and the GI50 [22] was > 100 µM (inactive). For the same molecule, the GI50 [23] was > 100 µM (inactive), the GI50 [24] was > 100 µM (inactive) and the GI50 [25] was > 100 µM (inactive). The GI50 [26] was 19.9 µM (inactive), the GI50 [28] was > 100 µM (inactive) and the GI50 [29] was > 100 µM (inactive). For the same molecule, the GI50 [30] was 53.1 µM (inactive), the GI50 [31] was 28.2 µM (inactive) and the GI50 [32] was > 100 µM (inactive). The GI50 [33] was > 100 µM (inactive), the GI50 [34] was > 100 µM (inactive) and the GI50 [35] was > 100 µM (inactive). The GI50 [36] was 13.8 µM (inactive), the GI50 [37] was > 100 µM (inactive) and the GI50 [38] was > 100 µM (inactive). The GI50 [39] was > 100 µM (inactive), the GI50 [40] was > 100 µM (inactive) and the GI50 [64] was > 100 µM (inactive). For the same molecule, the GI50 [41] was 42.6 µM (inactive), the GI50 [42] was > 100 µM (inactive) and the GI50 [43] was > 100 µM (inactive). For the same molecule, the GI50 [44] was > 100 µM (inactive), the GI50 [45] was > 100 µM (inactive) and the GI50 [46] was 99.5 µM (inactive). The GI50 [47] was > 100 µM (inactive), the GI50 [67] was 68.9 µM (inactive) and the GI50 [48] was 78 µM (inactive). The GI50 [49] was > 100 µM (inactive), the GI50 [50] was 7.89 µM (inactive) and the GI50 [51] was > 100 µM (inactive). For the same molecule, the GI50 [69] was > 100 µM (inactive), the GI50 [52] was > 100 µM (inactive) and the GI50 [53] was 64.1 µM (inactive).
